# Values of other authors, collected in patent publication US20040067256A1, “Novel modified release formulation” (priority 2001, published 2004).
# Read-outs that look alike come from different tables or passages of the source.
# Conditions: ambient temperature of 22-25° C.
water-solubility (physiological pH),water-solubility,Compound
about 0.0046 mg/ml,,"CC(O)(CS(=O)(=O)c1ccc(F)cc1)C(=O)Nc1ccc(C#N)c(C(F)(F)F)c1 (racemic) [bicalutamide, 4′-cyano-α′,α′,α′-trifluoro-3-(4-fluorophenylsulphonyl)-2-hydroxy-2-methylpropiono-m-toluidide]"
,about 0.5 μg/ml,"CCOC(=O)C1=C(C)NC(C)=C(C(=O)OC)C1c1cccc(Cl)c1Cl (centres unmarked) [Felodipine, 2,6-dimethyl-4-(2,3-dichlorophenyl)-1,4-dihydropyridine-3,5-dicarboxylic acid-3-methyl ester-5-ethyl ester]"
